Patent US9676727B2, “Myxovirus therapeutics, compounds, and uses related thereto” (priority 2011, dated 2017)
In brackets after ≈: the same amount, converted by molar mass.

Experiments:
Vero cells = assay: MTT cytotoxicity; format: cell-based; details: averages of at least three experiments; highest concentration assessed 75 μM
[1] = Pharmacokinetic study in rat, plasma concentration after dosing; format: in vivo, Sprague-Dawley rat; details: suspension in PEG200/0.5% methylcellulose (10/90)
Method: Preliminary pharmacokinetic (PK) studies in the Sprague-Dawley rat compared AS-136a with compounds 2k and 2o following p.o. dosing by oral gavage at 10 mg/kg and 50 mg/kg in a PEG200/0.5% methylcellulose (10/90) vehicle (n=4/group).
The data from the preliminary pharmacokinetic studies using the 6-hour time point are reported for comparison purposes. […] On the basis of its excellent in vitro potency, good solubility and pharmacokinetic profile, compound 2o was chosen for further bioavailability evaluation.

[2] = Aqueous solubility by nephelometry; format: physicochemical; details: buffer pH=7.4; for Aqueous solubility (μg/ml) Test: Nephelometer
MV-Alaska [3] = assay: Virus yield (virus titer) reduction assay; format: cell-based, Measles virus (MeV); details: Measles morbillivirus; averages of two to four experiments ± SEM; highest concentration assessed 1 μM; read-out: EC50 (μM) (MV-Alaska) virus titer reduction
MV-Alaska [4] = assay: Viral CPE-reduction assay (MeV-Alaska in Vero-SLAM cells, crystal violet); format: cell-based, Measles virus (MeV)
Method: Methods for evaluating viral activity are provided for in Yoon et al., J Biomol Screen., 2008, 13(7): 591-608 and Krumm et al., PLoS ONE, 2011, 6(5), e20069, both hereby incorporated by reference in their entirety. In certain instances, Vero-SLAM cells were infected with MeV-Alaska in four replicates per compound concentration in a 96-well plate format at an MOI of 0.4 pfu/cell in the presence of the inhibitor. At 96 hours post-infection, cell monolayers were subjected to crystal violet staining (0.1% crystal violet in 20% ethanol), and the absorbance of dried plates at 560 nm determined. Virus-induced cytopathicity was then calculated according to the formula [% rel. CPE=100-(experimental-minimum)/(maximum-minimum)*100], with minimum referring to infected, vehicle-treated wells and maximum to mock-infected wells.

[5] = Measles morbillivirus, Table 1, piperidine series, read-out: EC50 (μM) (MV-Alaska) (CPE inhib.)
[6] = Measles morbillivirus, Table 3, averages of four experiments, concentration range 2.3-75 μM, read-out: EC50 (μM) (MV-Alaska) CPE inhibition
[7] = Measles morbillivirus, read-out: EC50 (μM) (MV-Alaska) (CPE inhib.)
[8] = Table 1, piperidine series, read-out: EC50 (μM) (MV-Alaska) (CPE inhib.)
[9] = Measles morbillivirus, Table 2, phenyl and acyclic series, read-out: EC50 (μM) (MV-Alaska) (CPE inhibition)

Cn1nc(C(F)(F)F)cc1C(=O)Nc1ccc(S(=O)(=O)N2CCCCC2)cc1 [AS-136a, 1-methyl-N-(4-(piperidin-1-ylsulfonyl)phenyl)-3-(trifluoromethyl)-pyrazole-5-carboxamide, reference compound]
CC50 (Vero cells): > 75 µM
AUC (0-t) ([1]; oral 10 mg/kg): 132 ng·h/mL
AUC (0-∞) ([1]; oral 10 mg/kg): 513 ng·h/mL
Cmax ([1]; oral 10 mg/kg): 26.9 ng/mL
Tmax ([1]; oral 10 mg/kg): 2.5 h
T½ ([1]; oral 10 mg/kg): 12.7 h
AUC (0-t) ([1]; oral 50 mg/kg): 308 ng·h/mL
AUC (0-∞) ([1]; oral 50 mg/kg): 483 ng·h/mL
Cmax ([1]; oral 50 mg/kg): 72.2 ng/mL
Tmax ([1]; oral 50 mg/kg): 2.7 h
T½ ([1]; oral 50 mg/kg): 3.7 h
aqueous solubility ([2]; nephelometry): 15.0 µg/mL (≈ 36 µM)
EC50 (MV-Alaska [3]): 0.014 µM

COCOCC1CCCCN1S(=O)(=O)c1ccc(NC(=O)c2cc(C(F)(F)F)nn2C)cc1 (stereo not shown) [Compound 1a, N-(4-((2-((methoxymethoxy)methyl)piperidin-1-yl)sulfonyl)phenyl)-1-methyl-3-(trifluoromethyl)-pyrazole-5-carboxamide]
fold more potent than the corresponding 3-piperidine (MV-Alaska [4]; MOM ether analogs, CPE assay): 2 fold
EC50 (MV-Alaska [4]; [5]): 1.5 µM

COCOCC1CCCN(S(=O)(=O)c2ccc(NC(=O)c3cc(C(F)(F)F)nn3C)cc2)C1 (stereo not shown) [Compound 1b, N-(4-((3-((methoxymethoxy)methyl)piperidin-1-yl)sulfonyl)phenyl)-1-methyl-3-(trifluoromethyl)-pyrazole-5-carboxamide]
EC50 (MV-Alaska [4]; [5]): 3.8 µM

COCOCC1CCN(S(=O)(=O)c2ccc(NC(=O)c3cc(C(F)(F)F)nn3C)cc2)CC1 [Compound 1c, N-(4-((4-((methoxymethoxy)methyl)piperidin-1-yl)sulfonyl)phenyl)-1-methyl-3-(trifluoromethyl)-pyrazole-5-carboxamide]
fold reduction of activity, 4-substituted derivative (MV-Alaska [4]; MOM ether analogs, CPE assay, versus 2-piperidine 1a): ~10 fold
EC50 (MV-Alaska [4]; [5]): 16 µM

Cn1nc(C(F)(F)F)cc1C(=O)Nc1ccc(S(=O)(=O)N2CCCCC2CO)cc1 (stereo not shown) [Compound 2a]
EC50 (MV-Alaska [4]; [5]): 2.8 µM
EC50 (MV-Alaska [4]; [6]): 2.3 µM
CC50 (Vero cells): > 75 µM
Aqueous solubility (μg/ml) Test [2]: 61 µg/mL
EC50 (MV-Alaska [3]): 0.85 ± 0.05 µM

Cn1nc(C(F)(F)F)cc1C(=O)Nc1ccc(S(=O)(=O)N2CCCCC2CN2CCOCC2)cc1 (stereo not shown) [Compound 2b, 1-methyl-N-(4-((2-(morpholinomethyl)piperidin-1-yl)sulfonyl)phenyl)-3-(trifluoromethyl)-pyrazole-5-carboxamide]
EC50 (MV-Alaska [4]; [5]): 9.3 µM

Cn1nc(C(F)(F)F)cc1C(=O)Nc1ccc(S(=O)(=O)N2CCCCC2CN=[N+]=[N-])cc1 (stereo not shown) [Compound 2c]
EC50 (MV-Alaska [4]; [5]): 1.5 µM

Cn1nc(C(F)(F)F)cc1C(=O)Nc1ccc(S(=O)(=O)N2CCCCC2CN)cc1 (stereo not shown) [Compound 2d, N-(4-((2-(aminomethyl)piperidin-1-yl)sulfonyl)phenyl)-1-methyl-3-(trifluoromethyl)-pyrazole-5-carboxamide]
EC50 (MV-Alaska [4]; [7]): 55 µM

CC(=O)NCC1CCCCN1S(=O)(=O)c1ccc(NC(=O)c2cc(C(F)(F)F)nn2C)cc1 (stereo not shown) [Compound 2e, N-(4-((2-(acetamidomethyl)piperidin-1-yl)sulfonyl)phenyl)-1-methyl-3-(trifluoromethyl)-pyrazole-5-carboxamide]
EC50 (MV-Alaska [4]; [5]): 14 µM

CCOC(=O)/C=C/C1CCCCN1S(=O)(=O)c1ccc(NC(=O)c2cc(C(F)(F)F)nn2C)cc1 (stereo not shown) [Compound 2g, ethyl 3-(1-((4-(1-methyl-3-(trifluoromethyl)-pyrazole-5-carboxamido)phenyl)sulfonyl)piperidin-2-yl)acrylate]
fold more active than the corresponding alcohols (2h and 2j) (MV-Alaska [4]; CPE assay): 2 fold
EC50 (MV-Alaska [4]; [7]): 3.7 µM

Cn1nc(C(F)(F)F)cc1C(=O)Nc1ccc(S(=O)(=O)N2CCCCC2/C=C/CO)cc1 (stereo not shown) [Compound 2h, N-(4-((2-(3-hydroxypropyl-1-ene)piperidin-1-yl)sulfonyl)phenyl)-1-methyl-3-(trifluoromethyl)-pyrazole-5-carboxamide]
EC50 (MV-Alaska [4]; [5]): 6.8 µM

CCOC(=O)CCC1CCCCN1S(=O)(=O)c1ccc(NC(=O)c2cc(C(F)(F)F)nn2C)cc1 (stereo not shown) [Compound 2i, ethyl 3-(1-((4-(1-methyl-3-(trifluoromethyl)-pyrazole-5-carboxamido)phenyl)sulfonyl)piperidin-2-yl)propanoate]
fold more active than the corresponding alcohols (2h and 2j) (MV-Alaska [4]; CPE assay): 2 fold
EC50 (MV-Alaska [4]; [5]): 2.7 µM

Cn1nc(C(F)(F)F)cc1C(=O)Nc1ccc(S(=O)(=O)N2CCCCC2CCCO)cc1 (stereo not shown) [Compound 2j, N-(4-((2-(3-hydroxypropyl)piperidin-1-yl)sulfonyl)phenyl)-1-methyl-3-(trifluoromethyl)-pyrazole-5-carboxamide]
EC50 (MV-Alaska [4]; [5]): 6.7 µM

Cn1nc(C(F)(F)F)cc1C(=O)Nc1ccc(S(=O)(=O)N2CCCCC2CCO)cc1 (stereo not shown) [Compound 2l, N-(4-((2-(2-hydroxyethyl)piperidin-1-yl)sulfonyl)phenyl)-1-methyl-3-(trifluoromethyl)-pyrazole-5-carboxamide]
fold loss of activity compared to 2m (MV-Alaska [4]; CPE assay, R versus S chirality): 3 fold
EC50 (MV-Alaska [4]; [8]): 8.3 µM

Cn1nc(C(F)(F)F)cc1C(=O)Nc1ccc(S(=O)(=O)N2CCCCC2CCO)cc1 (stereo not shown) [Compound 2m, N-(4-((2-(2-hydroxyethyl)piperidin-1-yl)sulfonyl)phenyl)-1-methyl-3-(trifluoromethyl)-pyrazole-5-carboxamide]
EC50 (MV-Alaska [4]; [8]): 3.1 µM

Cn1nc(C(F)(F)F)cc1C(=O)Nc1ccc(S(=O)(=O)N2CCCCC2CCN2CCOCC2)cc1 (stereo not shown) [Compound 2n, 1-methyl-N-(4-((2-(2-morpholinoethyl)piperidin-1-yl)sulfonyl)phenyl)-3-(trifluoromethyl)-pyrazole-5-carboxamide]
EC50 (MV-Alaska [4]; [5]): 4.6 µM
CC50 (Vero cells): > 75 µM
Aqueous solubility (μg/ml) Test [2]: 55 µg/mL

CCOC(=O)COCC1CCCCN1S(=O)(=O)c1ccc(NC(=O)c2cc(C(F)(F)F)nn2C)cc1 (stereo not shown) [Compound 2p, ethyl 2-((1-((4-(1-methyl-3-(trifluoromethyl)-pyrazole-5-carboxamido)phenyl)sulfonyl)piperidin-2-yl)methoxy)acetate]
EC50 (MV-Alaska [4]; [5]): 25 µM

Cn1nc(C(F)(F)F)cc1C(=O)Nc1ccc(S(=O)(=O)N2CCCCC2COCCO)cc1 (stereo not shown) [Compound 2q, N-(4-((2-((2-hydroxyethoxy)methyl)piperidin-1-yl)sulfonyl)phenyl)-1-methyl-3-(trifluoromethyl)-pyrazole-5-carboxamide]
EC50 (MV-Alaska [4]; [5]): 8.3 µM

Cn1nc(C(F)(F)F)cc1C(=O)Nc1ccc(S(=O)(=O)c2ccccc2)cc1 [Compound 3a, 1-methyl-N-(4-(phenylsulfonyl)phenyl)-3-(trifluoromethyl)-pyrazole-5-carboxamide]
EC50 (MV-Alaska [4]; [9]): 2.8 µM
CC50 (Vero cells): > 75 µM
Aqueous solubility (μg/ml) Test [2]: 22 µg/mL
EC50 (MV-Alaska [3]): 0.02 µM

COc1ccccc1S(=O)(=O)c1ccc(NC(=O)c2cc(C(F)(F)F)nn2C)cc1 [Compound 3b, N-(4-((2-methoxyphenyl)sulfonyl)phenyl)-1-methyl-3-(trifluoromethyl)-pyrazole-5-carboxamide]
EC50 (MV-Alaska [4]; [9]): 3.1 µM
CC50 (Vero cells): > 75 µM

CC(=O)Oc1ccccc1S(=O)(=O)c1ccc(NC(=O)c2cc(C(F)(F)F)nn2C)cc1 [Compound 3d, 2-((4-(1-methyl-3-(trifluoromethyl)-pyrazole-5-carboxamido)phenyl)sulfonyl)phenyl acetate]
EC50 (MV-Alaska [4]; [9]): 4.5 µM

Cn1nc(C(F)(F)F)cc1C(=O)Nc1ccc(S(=O)(=O)c2ccccc2CO)cc1 [Compound 3f, N-(4-((2-(hydroxymethyl)phenyl)sulfonyl)phenyl)-1-methyl-3-(trifluoromethyl)-pyrazole-5-carboxamide]
EC50 (MV-Alaska [4]; [9]): 3.1 µM
EC50 (MV-Alaska [4]; [6]): 3.1 µM
CC50 (Vero cells): > 75 µM
Aqueous solubility (μg/ml) Test [2]: 46 µg/mL
